Where a name gives a salt, the structure may show the parent alone. Read-outs that look alike come from different tables or passages of the source.
Key:
[1] = Human exposure (AUC) used for dose extrapolation; conditions: in vivo, humans, dose of 7.5 mg
From the text: (§1) Extrapolation to the corresponding dosage in humans was achieved while adjusting for the relative AUC for each.

rat brain = assay: Rat BOLD fMRI study of resting state functional connectivity; type: in vivo
Experimental: BOLD fMRI was used to measure drug-related changes in resting state functional connectivity across the whole brain.
Adult male Wistar rats (275±25 g) were housed separately and maintained on a 12-h light, 12-h dark schedule. Food and water was provided ad libitum. Animals were cared for in accordance with the guidelines published in the Guide for the Care and Use of Laboratory Animals (National Institutes of Health Publications No. 85-23, Revised 1985). Animal body weights were measured approximately 24 hours before Day −3, and on Study Days 3 and 6.
Pioglitazone HCl (PIO) was dissolved in 0.5 mol/L citric acid (CA) to yield a stock solution at a concentration of 0.32 mg/10 mL/kg. Other dosages were prepared by appropriate dilution of the stock solution with 0.5 mol/L CA to yield dose volumes of 10 mL/kg. Control rats received the vehicle at 10 mL/kg. Dose concentrations were based on the weight of the test article as supplied (i.e., as the HCl salt), with the dose adjusted to the most recent body weight of the animal. Daily dosing with PIO in solution was by oral gavage at approximately the same time every day. Animals were anesthetized lightly with isoflurane immediately beforehand to facilitate dosing.
All animals used in the imaging studies were acclimated to the MRI holding device by being placed in it for 15-90 minutes daily for at least 7 days, as previously described (Zhang et al. 2010 J Neurosci Methods 189: 186-196; Liang et al. 2011 J Neurosci 31: 3776-3783).
After the acclimation period, animals were assigned to 1 of 7 treatment arms matched for mean body weights (see Table 1). Dosing occurred once daily, at approximately the same time every day. All animals were imaged at Baseline (Study Day −3), approximately 2.5 to 3 h after dosing with vehicle. Dosing began 3 days later (Study Day 1). On this day, all animals were administered either vehicle (CA) or PIO depending on their group assignment. On Study Day 2, one vehicle group and one group treated with PIO at 0.08 mg/kg/day (Acute Arm) were imaged approximately 2.5 to 3 h after dosing. For all groups, dosing continued for seven days total. On Study Day 7, all rats were imaged approximately 2.5 to 3 h after administration of the final dose.
Animal preparation activities related to imaging were initiated to insure that the imaging itself occurred approximately 2.5 to 3 h after dosing. The animals were prepared for positioning in the restraint under isoflurane anesthesia as previously described (Zhang et al. 2010, supra). […] Imaging was conducted on awake animals.
All MR experiments were conducted using a 4.7 T/40 cm horizontal magnet (Oxford, UK) interfaced with a BiospecBruker console (Bruker, Germany) and equipped with a 20 G/cm magnetic field gradient. A dual ^1H radiofrequency (RF) coil configuration (Insight Neurolmaging Systems, Worcester, Mass.) consisting of a volume coil for exciting the water proton spins and a surface coil for receiving MRI signal was used; the volume and surface coils were actively tuned and detuned to prevent mutual coil coupling. This dual-coil configuration allowed for sufficient RF field homogeneity in the rat brain for RF transmission, while preserving the advantage of higher signal-to-noise ratio (SNR) provided by the smaller reception coil.
Anatomical images were acquired first using a multi-slice fast spin-echo sequence (RARE) with the parameters: repetition time (TR)=2125 ms; RARE factor=8; effective echo time (TE)=50 ms; matrix size=256×256; field of view (FOV)=3.2×3.2 cm^2; slice number=18; slice thickness=1 mm; n=8.

in vivo = conditions: rat
From the text: as §1

[2] = test system: cell death due to glucose deprivation; conditions: cited from earlier work
[3] = test system: transgenic mouse models of AD, and mouse and rat models of neurodegeneration or brain injury; conditions: in vivo; cited from earlier work
[4] = test system: neuronal insulin resistance; conditions: cited from earlier work
[5] = test system: diabetic patients with AD or mild cognitive impairment; conditions: placebo-controlled clinical trials; cited from earlier work

With CCc1ccc(CCOc2ccc(CC3SC(=O)NC3=O)cc2)nc1 (stereo not shown) [PIO, Pioglitazone HCl] the AUC [1] was 2.8 µg·h/mL, the “time at which functional changes were induced” value (rat brain; 0.08 mg/kg/day, earliest time point assayed after initiation of treatment) was ≤ 24 h and the “fMRI signal relative to lower dosages” value (rat brain; 0.32 mg/kg/day, appearance in FIG. 1, to be confirmed) was “diminished signal”. The “dose that induced functional changes at earliest time point” value (rat brain; 24 hours after initiation of treatment) was ≥ 0.08 mg/kg/day, the “dose that induces change in metabolism in deep subcortical structure of the rat brain (fMRI)” value (rat brain; group-averaged fMRI signal, treatment day 7, relative to vehicle control) was ≥ 0.04 mg/kg/day and the “blood brain barrier penetration” value (rat brain; low-dose PIO, administered orally, concluded from fMRI changes) was “penetrates the blood brain barrier”. The “dose that induces changes in multiple brain regions” value (rat brain; oral, relative to vehicle control) was ≥ 0.04 mg/kg/day, the AUC (in vivo; Wistar, po, 0.04 mg/kg/day) was 0.57 µg·h/mL and the AUC (in vivo; Wistar, po, 0.08 mg/kg/day) was 1.14 µg·h/mL. It also gave an AUC (in vivo; Wistar, po, 0.16 mg/kg/day) of 2.28 µg·h/mL, an AUC (in vivo; Wistar, po, 0.32 mg/kg/day) of 4.55 µg·h/mL and an AUC (in vivo; 0.5 mg/kg/day) of 7.11 µg·h/mL.
In the case of CCc1ccc(CCOc2ccc(CC3SC(=O)NC3=O)cc2)nc1 (stereo not shown) [pioglitazone, Pioglitazone], the “concentration that significantly reduces cell death due to glucose deprivation” value [2] is listed as ≥ 1 nM, the “expression of NRF1, TFAM1 and UCP-2” value [2] is listed as “increases expression” and the “reported effects in animal models (amyloid plaque burden, brain glucose utilization, inflammation, oxidative stress, memory and learning deficits, neurogenesis)” value [3] is listed as “Beneficial effects”. The brain concentration (0.5 mg dose) was “approximately 6.7 nM”, the serum concentration (0.5 mg dose) was “approximately 33.3 nM” and the brain concentration (1.5 mg dose) was “approximately 20 nM”. For the same compound, the serum concentration (1.5 mg dose) was “approximately 100 nM”, the brain concentration (4.5 mg dose) was “approximately 50 nM” and the serum concentration (4.5 mg dose) was “approximately 300 nM”. The brain concentration (9 mg dose) was “approximately 120 nM”, the serum concentration (9 mg dose) was “approximately 600 nM” and the neuronal insulin resistance [4] was “improves neuronal insulin resistance”. For the same compound, the “change in metabolism in the central region of the deep cortical structures of the brain (fMRI)” value (rat brain; even the lowest doses, orally-administered, immediate release) was “produce a change in metabolism”, the cognition [5] was “improved” and the hyperinsulinemia [5] was “improved”. For the same compound, the “regional cerebral blood flow” value [5] was “improved regional cerebral blood flow”.

From patent US11179375B2, “Methods and drug products for treating Alzheimer's disease” (Zinfandel Pharmaceuticals, Inc., priority 2011, dated 2021)
